Results published in patent publication US8426220B2, “Utilization of shield effect for dopamine detection and reagent development” (National Tsing Hua University, priority 2009, dated 2013).

Tests used:
[1] = target: T1, hMAO B-GFP fusion protein (medium form of dopamine probe) in PC12 cells (Homo sapiens, UniProt P27338); test: MAO substrates MPTP and L-DOPA added to cells expressing dopamine probe elicit GFP fluorescence; format: cell-based; settings: for GFP fluorescence after drug treatment: PC12 cells expressing medium form of dopamine probe; for green fluorescence (release from shield effect) after treatment: preliminary experiment, excitation of 488 nm laser, a part of the cells
T1 construct: expressed in transfected cells
From the text: Additions of MAO Substrates 1-methyl-4-phenyl-1,2,3,6-tetrahydropyridine (MPTP) and L-DOPA in Cells Expressing Dopamine Probe Elicit GFP Fluorescence
MPTP is a widely used compound as an MAO substrate. It is also used for measuring the enzyme activity of the MAO protein. The L-DOPA is a stable dopamine precursor and has been extensively used for the treatment of Parkinson's disease. After entering the cell, it could be converted into dopamine by the dopa decarboxylase. Both of the drugs could bind to dopamine transporter and be transported into the PC12 cells.

E. coli strain BL21 = test: GFP fluorescent signal of dopamine probes and controls in living E. coli BL21, confocal microscopy; format: cell-based; settings: living E. coli BL21 after IPTG induction, excited by 488 nm laser, no substrate
PC12 cell line = test: GFP fluorescent signal of dopamine probes and controls in PC12 stable cell lines, confocal microscopy; format: cell-based, rat; settings: excited by 488 nm laser, no substrate
From the text: The rat pheochromocytoma cells (PC12 cell) were transfected with sequences of GFP, ΔhMAO B, and the probe protein through vector containing internal ribosome entry site (IRES). After antibiotic selection for more than a month, cell lines consistently expressing dopamine probe proteins were successfully established. The cell lines were detected by GFP antibody in Western blotting and observed by confocal microscopy.

[2] = differentiated PC12 cell line (NGF)
[3] = undifferentiated PC12 cell line

Molecule	green fluorescence (release from shield effect) after treatment [1]	GFP fluorescent signal (E. coli strain BL21)	GFP fluorescent signal (PC12 cell line; [2])	GFP fluorescent signal (PC12 cell line; [3])	other results
N[C@@H](Cc1ccc(O)c(O)c1)C(=O)O [L-DOPA]	green fluorescence in those cells was successfully emitted				GFP fluorescence after drug treatment ([1]; 100 μM L-dopa): strong GFP fluorescence
CN1CC=C(c2ccccc2)CC1 [MPTP, 1-methyl-4-phenyl-1,2,3,6-tetrahydropyridine]	green fluorescence in those cells was successfully emitted				GFP fluorescence after drug treatment ([1]; 1 mM MPTP): strong GFP fluorescence
GFP: full-length green fluorescent protein, SEQ ID NO: 2, control [reference compound]		Evident expression of green fluorescent signal	clear fluorescent signals	clear fluorescent signals	GFP fluorescent signal (E. coli strain BL21; listed as full length GFP): clear fluorescent signals
ΔhMAO B (protein) MSNKCDVVVVGGGISGMAAAKLLHDSGLNVVVLEARDRVGGRTYTLRNQKVKYVDLGGSYVGPTQNRILRLAKELGLETYKVNEVERLIHHVKGKSYPFRGPFPPVWNPITYLDHNNFWRTMDDMGREIPSDAPWKAPLAEEWDNMTMKELLDKLCWTESAKQLATLFVNLCVTAETHEVSALWFLWYVKQCGGTTRIISTTNGGQERKFVGGSGQVSERIMDLLGDRVKLERPVIYIDQTRENVLVETLNHEMYEAKYVISAIPPTLGMKIHFNPPLPMMRNQMITRVPLGSVIKCIVYYKEPFWRKKDYCGTMIIDGEEAPVAYTLDDTKPEGNYAAIMGFILAHKARKLARLTKEERLKKLCELYAKVLGSLEALEPVHYEEKNWCEEQYSGGCYTTYFPPGILTQYGRVLRQPVDRIYFAGTETATHWSGYMEGAVEAGERAAREILHAMGKIPEDEI		no fluorescent signal	no signal	no signal	
hMAO B: the complete human monoamine oxidase B, SEQ ID NO: 1, control (protein, listed as Homo sapiens, mat_peptide (1)..(520)) MSNKCDVVVVGGGISGMAAAKLLHDSGLNVVVLEARDRVGGRTYTLRNQKVKYVDLGGSYVGPTQNRILRLAKELGLETYKVNEVERLIHHVKGKSYPFRGPFPPVWNPITYLDHNNFWRTMDDMGREIPSDAPWKAPLAEEWDNMTMKELLDKLCWTESAKQLATLFVNLCVTAETHEVSALWFLWYVKQCGGTTRIISTTNGGQERKFVGGSGQVSERIMDLLGDRVKLERPVIYIDQTRENVLVETLNHEMYEAKYVISAIPPTLGMKIHFNPPLPMMRNQMITRVPLGSVIKCIVYYKEPFWRKKDYCGTMIIDGEEAPVAYTLDDTKPEGNYAAIMGFILAHKARKLARLTKEERLKKLCELYAKVLGSLEALEPVHYEEKNWCEEQYSGGCYTTYFPPGILTQYGRVLRQPVDRIYFAGTETATHWSGYMEGAVEAGERAAREILHAMGKIPEDEIWQSEPESVDVPAQPITTTFLERHLPSVPGLLRLIGLTTIFSATALGFLAHKRGLLVRV		no fluorescent signal			
